In brackets after ≈: the same amount, converted by molar mass. Like-named read-outs stand apart in the source and are kept apart here.
Key:
[1] = target: Pseudomonas aeruginosa LpxC enzyme (Pseudomonas aeruginosa (strain ATCC 15692 / DSM 22644 / CIP 104116 / JCM 14847 / LMG 12228 / 1C / PRS 101 / PAO1), UniProt P47205); assay: IC50 Assay, LpxC Enzyme from P. aeruginosa (PA LpxC Enzyme IC50); type: biochemical
Method: In order to assess the compounds biological activity, selected in-vitro assays were conducted on selected compounds. One of the assays measured the compounds ability to disrupt the synthesis of lipopolysaccharide, LPS, which is a component of the outer membrane of Gram-negative bacteria. Disruption of this synthesis is lethal to the bacteria. The assay determined the compound's ability to inhibit LpxC, which is the first enzyme in the biosynthetic pathway for LPS (measured as IC50). Additionally, MICs (minimal inhibitory concentrations) were determined for several bacteria. The specific protocols are described below:
A) IC50 Assay, LpxC Enzyme from P. aeruginosa (Labled as PA LpxC Enzyme IC50
At the end of 1 hour, 5 ul of 1N HCl was added to stop the enzyme reaction; the plates were centrifuged, and then processed with the BioTrove Rapidfire HTMS Mass Spectrometry System. A no-enzyme control was used in calculating the IC50 values from the percent conversion values.

[2] = test system: Acinetobacter baumanii/haemolyticus: Multidrug-resistant clinical isolate (AB-3167); assay: MIC determination (CLSI), AB-3167; type: cell-based; conditions: for MIC: Acinetobacter baumannii
Outline: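 Multidrug-resistant clinical isolate AB-3167 (A. baumannii/haemolyticus) tested for minimum inhibitory concentration following CLSI dilution susceptibility standards M7-A7 and M100-S18.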

[3] = test system: Escherichia coli EC-1: VOGEL, mouse virulent; assay: MIC determination (CLSI), EC-1; type: cell-based; conditions: for MIC: Escherichia coli
Outline: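 E. coli Vogel, a mouse-virulent strain (EC-1), was tested. MICs were set by dilution susceptibility testing per CLSI standards M7-A7/M100-S18.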

[4] = test system: Klebsiella pneumoniae: Ciprofloxacin-resistant isolate, ESBL, clinical isolate (KP-3700); assay: MIC determination (CLSI), KP-3700; type: cell-based
Outline: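 MIC measured by broth dilution according to CLSI M7-A7 and M100-S18 standards. Test organism was a ciprofloxacin-resistant, ESBL-expressing clinical isolate.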

[5] = test system: Pseudomonas aeruginosa UI-18: Wild-type (PA-7); assay: MIC determination (CLSI), PA-7; type: cell-based; conditions: for MIC: Pseudomonas aeruginosa
Outline: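 MIC by dilution method per CLSI M7-A7 and M100-S18 guidelines. Strain: wild-type Pseudomonas aeruginosa UI-18.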

[6] = Table 1, read-out: PA LpxC enzyeme IC50
[7] = Table 1, MIC, read-out: AB-3167 (MIC)
[8] = Table 1, MIC, read-out: PA-7 (MIC)
[9] = Table 3, read-out: PA LpxC enzyeme IC^50
[10] = P. aeruginosa LpxC enzyme, read-out: PA LpxC enzyeme IC50
[11] = Acinetobacter baumanii/haemolyticus multidrug-resistant clinical isolate AB-3167
[12] = Escherichia coli EC-1 VOGEL, mouse virulent
[13] = Pseudomonas aeruginosa UI-18 wild-type PA-7
[14] = Acinetobacter baumanii/haemolyticus AB-3167
[15] = Pseudomonas aeruginosa UI-18 (PA-7)

SMILES	KP-3700 MIC [4]	IC50 [1, 10] [nM]	AB-3167 MIC [2, 11]	EC-1 MIC [3, 12]	PA-7 MIC [5, 13]	also measured
CC(CCc1ccc(-c2ccc(F)cc2)c(O)c1)(C(=O)NO)S(C)(=O)=O (centres unmarked) [Example 21, 4-(4′-Fluoro-2-hydroxybiphenyl-4-yl)-N-hydroxy-2-methyl-2-(methylsulfonyl)butanamide]	≧64 mg/L					IC50 [1, 6]: 15.4 nM; MIC [2, 7]: ≥ 64 mg/L; MIC ([3]; read-out: EC-1: (MIC)): 16 mg/L (≈ 41.9 µM); MIC [5, 8]: 16 mg/L (≈ 41.9 µM)
CC(CCc1ccc(OCc2ccccc2F)cc1)(C(=O)NO)S(C)(=O)=O (centres unmarked) [Example 242, 4-{4-[(2-fluorobenzyl)oxy]phenyl}-N-hydroxy-2-methyl-2-(methylsulfonyl)butanamide]	8 mg/L					IC50 [1, 9]: 0.655 nM; MIC ([2]; Table 3, read-out: AB-3167 MIC): ≥ 64 mg/L; MIC ([3]; read-out: EC-1 MIC): 4 mg/L (≈ 10.1 µM); MIC ([5]; Table 3, read-out: PA-7 MIC): ≥ 64 mg/L
Cc1ccc(-c2ccc(CCC(C)(C(=O)NO)S(C)(=O)=O)cc2)cc1C (centres unmarked) [Example 83]	4 mg/L	0.242	8 mg/L	1 mg/L	2 mg/L	
CC(CCc1ccc(-c2ccc(CCCO)cc2)cc1)(C(=O)NO)S(C)(=O)=O (centres unmarked) [Example 47]	2 mg/L	0.132	≧64 mg/L	0.5 mg/L	1 mg/L	
Cc1ccccc1COc1ccc(CCC(C)(C(=O)NO)S(C)(=O)=O)cc1 (centres unmarked) [Example 260, N-hydroxy-2-methyl-4-{4-[(2-methylbenzyl)oxy]phenyl}-2-(methylsulfonyl)butanamide]	≧64 mg/L					IC50 [1, 9]: 1.45 nM; MIC ([2]; Table 3, read-out: AB-3167 MIC): 32 mg/L (≈ 81.7 µM); MIC ([3]; read-out: EC-1 MIC): 16 mg/L (≈ 40.9 µM); MIC ([5]; Table 3, read-out: PA-7 MIC): 8 mg/L (≈ 20.4 µM)
Cc1cccnc1COc1ccc(CCC(C)(C(=O)NO)S(C)(=O)=O)cc1 (centres unmarked) [Example 287, N-hydroxy-2-methyl-4-{4-[(3-methylpyridin-2-yl)methoxy]phenyl}-2-(methylsulfonyl)butanamide]	≧64 mg/L					IC50 [1, 9]: 3.14 nM; MIC ([2]; Table 3, read-out: AB-3167 MIC): ≥ 64 mg/L; MIC ([3]; read-out: EC-1 MIC): ≥ 64 mg/L; MIC ([5]; Table 3, read-out: PA-7 MIC): 16 mg/L (≈ 40.8 µM)
C[C@@](CCc1ccc(-c2ccc(OCC(=O)N3CCC(O)CC3)cc2)cc1)(C(=O)NO)S(C)(=O)=O [Example 221]	≧64 mg/L	0.533				AB-3167 MIC [2, 14]: ≧64 mg/L; EC-1 MIC ([3]; Escherichia coli EC-1): 16 mg/L; PA-7 MIC [5, 15]: 16 mg/L
CC(CCc1ccc(OCc2ccc(OC(F)(F)F)cc2)cc1)(C(=O)NO)S(C)(=O)=O (centres unmarked) [Example 288, N-hydroxy-2-methyl-2-(methylsulfonyl)-4-(4-{[4-(trifluoromethoxy)benzyl]oxy}phenyl)butanamide]	8 mg/L					IC50 [1, 9]: 1.53 nM; MIC ([2]; Table 3, read-out: AB-3167 MIC): 4 mg/L (≈ 8.67 µM); MIC ([3]; read-out: EC-1 MIC): 4 mg/L (≈ 8.67 µM); MIC ([5]; Table 3, read-out: PA-7 MIC): 8 mg/L (≈ 17.3 µM)
CC(C)(O)CCc1ccc(-c2ccc(CCC(C)(C(=O)NO)S(C)(=O)=O)cc2)cc1 (centres unmarked) [Example 158]	8 mg/L	0.644	32 mg/L	0.5 mg/L	4 mg/L	
C[C@@](CCc1ccc(-c2ccc(NS(C)(=O)=O)cc2)cc1)(C(=O)NO)S(C)(=O)=O [Example 210]	16 mg/L	0.706				AB-3167 MIC [2, 14]: ≧64 mg/L; EC-1 MIC ([3]; Escherichia coli EC-1): 4 mg/L; PA-7 MIC [5, 15]: 2 mg/L
CC(CCc1ccc(-c2ccc([N+](=O)[O-])cc2)cc1)(C(=O)NO)S(C)(=O)=O (racemic) [Example 5, (+/−)-N-hydroxy-2-methyl-2-(methylsulfonyl)-4-(4′-nitrobiphenyl-4-yl)butanamide]	1 mg/L					IC50 [1, 6]: 0.12 nM; MIC [2, 7]: 32 mg/L (≈ 81.5 µM); MIC ([3]; read-out: EC-1: (MIC)): 0.5 mg/L (≈ 1.27 µM); MIC [5, 8]: 0.5 mg/L (≈ 1.27 µM)
C[C@@](CCc1ccc(-c2ccc(OCCN3CCOCC3)cc2)cc1)(C(=O)NO)S(C)(=O)=O [Example 172]	4 mg/L	0.512	≧64 mg/L	0.5 mg/L	4 mg/L	
CC(CCc1ccc(OCc2ccccc2)cc1)(C(=O)NO)S(C)(=O)=O (centres unmarked) [Example 132]	16 mg/L	0.386	16 mg/L	2 mg/L	2 mg/L	
CC(CCc1ccc(-c2ccccc2F)cc1)(C(=O)NO)S(C)(=O)=O (centres unmarked) [Example 50]	8 mg/L	0.731	16 mg/L	2 mg/L	0.5 mg/L	
CC(CCc1ccc(Sc2ccccc2)cc1)(C(=O)NO)S(C)(=O)=O (centres unmarked) [Example 12, N-Hydroxy-2-methyl-2-(methylsulfonyl)-4-[4-(phenylthio)phenyl]butanamide]	32 mg/L					IC50 [1, 6]: 11.9 nM; MIC [2, 7]: 8 mg/L (≈ 21.1 µM); MIC ([3]; read-out: EC-1: (MIC)): 8 mg/L (≈ 21.1 µM); MIC [5, 8]: 8 mg/L (≈ 21.1 µM)
C[C@@](CCc1ccc(-c2cc3ccccc3[nH]2)cc1)(C(=O)NO)S(C)(=O)=O [Example 218]	2 mg/L	0.034				AB-3167 MIC [2, 14]: 32 mg/L; EC-1 MIC ([3]; Escherichia coli EC-1): 0.5 mg/L; PA-7 MIC [5, 15]: 0.5 mg/L
CC(CCc1ccc(-c2ccc(N3CCN(S(C)(=O)=O)CC3)cc2)cc1)(C(=O)NO)S(C)(=O)=O (centres unmarked) [Example 193]	≧64 mg/L	1.08	≧64 mg/L	16 mg/L	≧64 mg/L	
CC(CCc1ccc(-c2cccc(C#N)c2)cc1)(C(=O)NO)S(C)(=O)=O (centres unmarked) [Example 64]	8 mg/L	0.739	≧64 mg/L	4 mg/L	2 mg/L	
Cc1cc(CCC(C)(C(=O)NO)S(C)(=O)=O)ccc1-c1ccccc1 (centres unmarked) [Example 159]	16 mg/L	5.58	32 mg/L	4 mg/L	8 mg/L	
CC(=O)c1ccc(-c2ccc(CC[C@](C)(C(=O)NO)S(C)(=O)=O)cc2)cn1 [Example 190]	4 mg/L	0.246	≧64 mg/L	4 mg/L	2 mg/L	
CC(CCc1ccc(C2=CCOCC2)cc1)(C(=O)NO)S(C)(=O)=O (centres unmarked) [Example 225]	≧64 mg/L	1.88				AB-3167 MIC [2, 14]: ≧64 mg/L; EC-1 MIC ([3]; Escherichia coli EC-1): 32 mg/L; PA-7 MIC [5, 15]: 4 mg/L
CC(CCc1ccc(OCc2ccc(F)cc2F)cc1)(C(=O)NO)S(C)(=O)=O (centres unmarked) [Example 294, 4-{4-[(2,4-difluorobenzyl)oxy]phenyl}-N-hydroxy-2-methyl-2-(methylsulfonyl)butanamide]	16 mg/L					IC50 [1, 9]: 0.992 nM; MIC ([2]; Table 3, read-out: AB-3167 MIC): 32 mg/L (≈ 77.4 µM); MIC ([3]; read-out: EC-1 MIC): 4 mg/L (≈ 9.67 µM); MIC ([5]; Table 3, read-out: PA-7 MIC): 4 mg/L (≈ 9.67 µM)
C[C@@](CCc1ccc(-c2ccc(CC(=O)N3CCC(O)CC3)cc2)cc1)(C(=O)NO)S(C)(=O)=O [Example 191]	≧64 mg/L	2.63	≧64 mg/L	≧64 mg/L	16 mg/L	
CC(CCc1ccc(COc2ccccc2)cc1)(C(=O)NO)S(C)(=O)=O (centres unmarked) [Example 25, N-Hydroxy-2-methyl-2-(methylsulfonyl)-4-[4-(phenoxymethyl)phenyl]butanamide]	16 mg/L					IC50 [1, 6]: 2.38 nM; MIC [2, 7]: 16 mg/L (≈ 42.4 µM); MIC ([3]; read-out: EC-1: (MIC)): 4 mg/L (≈ 10.6 µM); MIC [5, 8]: 8 mg/L (≈ 21.2 µM)
CC(CCc1ccc(OCc2c(F)cc(F)cc2F)cc1)(C(=O)NO)S(C)(=O)=O (centres unmarked) [Example 293, N-hydroxy-2-methyl-2-(methylsulfonyl)-4-{4-[(2,4,6-trifluorobenzyl)oxy]phenyl}butanamide]	32 mg/L					IC50 [1, 9]: 0.955 nM; MIC ([2]; Table 3, read-out: AB-3167 MIC): 32 mg/L (≈ 74.2 µM); MIC ([3]; read-out: EC-1 MIC): 4 mg/L (≈ 9.27 µM); MIC ([5]; Table 3, read-out: PA-7 MIC): 4 mg/L (≈ 9.27 µM)
CC(CCc1ccc(OCc2ccc(F)cc2C#N)cc1)(C(=O)NO)S(C)(=O)=O (centres unmarked) [Example 284, 4-{4-[(2-cyano-4-fluorobenzyl)oxy]phenyl}-N-hydroxy-2-methyl-2-(methylsulfonyl)butanamide]	≧64 mg/L					IC50 [1, 9]: 5.36 nM; MIC ([2]; Table 3, read-out: AB-3167 MIC): ≥ 64 mg/L; MIC ([3]; read-out: EC-1 MIC): 32 mg/L (≈ 76.1 µM); MIC ([5]; Table 3, read-out: PA-7 MIC): ≥ 64 mg/L
CC(CCc1ccc(C2=CCSCC2)cc1)(C(=O)NO)S(C)(=O)=O (centres unmarked) [Example 226]	8 mg/L	0.32				AB-3167 MIC [2, 14]: 16 mg/L; EC-1 MIC ([3]; Escherichia coli EC-1): 8 mg/L; PA-7 MIC [5, 15]: 1 mg/L
CC(CCc1ccc(-c2ccc(OCCO)cc2)cc1)(C(=O)NO)S(C)(=O)=O (centres unmarked) [Example 113]	8 mg/L	0.148	≧64 mg/L	2 mg/L	1 mg/L	
